Measured values reported in US20170342451A1, “BIOSYNTHESIS OF PACLITAXEL INTERMEDIATE” (Board of Trustees of Michigan State University, priority 2012, published 2017).

Columns and labels:
Cinnamate-CL = conditions: cited from earlier work
TycA = molecular target: T1, TycA (Brevibacillus parabrevis, UniProt P09095); assay: CoA ligase reaction kinetics, TycA; assay type: biochemical, Brevibacillus brevis
T1 construct: this wild-type tycA cDNA encoding the A-, T-, and E-domains was subcloned into a pSU18 vector; made in house; host or cells: Escherichia coli BL21(DE3)
T1 sequence (P09095 with tags, fused parts or gaps): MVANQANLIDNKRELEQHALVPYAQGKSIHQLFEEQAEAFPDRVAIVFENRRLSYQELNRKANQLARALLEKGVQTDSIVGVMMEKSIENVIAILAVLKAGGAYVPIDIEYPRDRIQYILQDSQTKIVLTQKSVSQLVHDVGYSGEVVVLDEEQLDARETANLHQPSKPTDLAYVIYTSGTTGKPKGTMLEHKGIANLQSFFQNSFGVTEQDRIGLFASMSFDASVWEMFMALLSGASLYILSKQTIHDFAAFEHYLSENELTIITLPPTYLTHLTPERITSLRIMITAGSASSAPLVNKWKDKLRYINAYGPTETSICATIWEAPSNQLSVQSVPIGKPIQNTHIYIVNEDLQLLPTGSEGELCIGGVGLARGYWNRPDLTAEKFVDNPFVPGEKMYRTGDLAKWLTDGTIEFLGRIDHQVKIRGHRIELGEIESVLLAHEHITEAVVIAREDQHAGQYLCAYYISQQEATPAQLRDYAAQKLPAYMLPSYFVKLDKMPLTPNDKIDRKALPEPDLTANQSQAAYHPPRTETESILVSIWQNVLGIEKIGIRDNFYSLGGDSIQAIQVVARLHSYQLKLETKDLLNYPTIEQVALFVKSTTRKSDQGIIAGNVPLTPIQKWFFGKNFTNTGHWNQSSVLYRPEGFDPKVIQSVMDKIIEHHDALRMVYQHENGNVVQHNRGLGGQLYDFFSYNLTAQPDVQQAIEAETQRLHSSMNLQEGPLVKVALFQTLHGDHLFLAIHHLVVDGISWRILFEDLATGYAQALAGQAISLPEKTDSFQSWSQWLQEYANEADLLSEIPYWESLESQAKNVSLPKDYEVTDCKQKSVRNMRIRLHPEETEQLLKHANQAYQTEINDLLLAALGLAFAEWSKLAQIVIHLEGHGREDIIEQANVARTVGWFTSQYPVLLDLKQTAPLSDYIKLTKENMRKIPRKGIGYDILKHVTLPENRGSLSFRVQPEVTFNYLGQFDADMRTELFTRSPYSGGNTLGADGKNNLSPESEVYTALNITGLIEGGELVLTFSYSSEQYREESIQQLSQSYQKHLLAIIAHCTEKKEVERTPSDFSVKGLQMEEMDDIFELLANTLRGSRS
Method: Under steady-state conditions, (S)-α-phenylalanine, (R)-β-phenylalanine, and (2R,3S)-phenylisoserine at 5, 10, 20, 40, 80, 160, 250, 500, 1000 and 2000 μM were separately incubated with TycA or TycA-S563A (20 μg) for 30 min. At the end of each reaction, and prior to mass spectrometry analysis, acetyl CoA (1 μM) was added as the internal standard to each sample to correct for variations of the analyte. The products of the enzyme-catalyzed reaction were quantified by a liquid chromatography multiple reaction monitoring (LC-ESI-MRM) mass spectrometry technique (Anderson & Hunter, Mol. Cell. Proteomics 5: 573-588 (2006)) on the Quattro-Premier Electro-Spray Mass Spectrometer coupled with Acquity® UPLC system fitted with a C18 Ascentis Express column (2.5×50 mm, 2.7 μm) at 30° C. An aliquot (5 μL) of each sample was loaded onto the column and the analytes were eluted with a solvent gradient of acetonitrile (Solvent A) in 0.05% triethylamine in distilled water (Solvent B). Elution was held at 2.5% Solvent A for 3.17 min, increased to 100% Solvent A over 5 sec with a 2-min hold, and then returned to 2.5% Solvent A over 5 sec with a 50-sec hold. The flow rate employed was 0.4 mL/min. The effluent from the chromatography column was directed to the mass spectrometer where the first quadrupole mass analyzer (in negative ion mode) was set to select for the molecular ion of a biosynthesized acyl CoA product. The selected ion was then directed to a collision gas chamber where the collision energy was optimized to maximize the abundance of a single signature fragment ion (m/z 408, characteristic of acyl CoA thioesters) resolved in the second quadrupole mass analyzer by the MRM method. The peak area under the curve of fragment ion m/z 408 for each biosynthetic phenylpropionyl CoA thioester was converted to concentration by comparing the peak area of the same ion produced by authentic CoA (at 0.05, 0.1, 0.2, 0.4, 0.8, 1.6, 3.2, 6.4, 12.5, 25, 50, 100 μM) using linear regression analysis.
The KM values of TycA and TycA-S563A for CoA were assessed by incubating each enzyme separately with (S)-α-phenylalanine (1 mM), MgCl2 (3 mM), ATP (1 mM), and CoA at 0.05, 0.1, 0.2, 0.4, 0.8, 1.6, 3.2, 6.4, 12.8 and 25.6 mM at 31° C. for 20 min. At the end of each reaction and prior to mass spectrometry analysis, acetyl CoA (1 μM) was added as the internal standard to each sample to correct for variations of the analyte. The products of the enzyme-catalyzed reaction were quantified by LC-ESI-MRM, and the monitored fragment ion (m/z 408) derived from the CoA moiety of the thioester analytes in the effluent was quantified identically to the procedure described earlier herein.

Propionyl-CL = Propionyl-CL (Salmonella typhimurium, UniProt P55912); conditions: cited from earlier work
Benzoate-CL = conditions: cited from earlier work
Phenylacetate-CL = conditions: cited from earlier work
4-Chlorobenzoate-CL = conditions: cited from earlier work
bacterial CoA Ligases = conditions: literature range; cited from earlier work
[1] = system: mutation of phenylacetate CoA Ligase; conditions: mutated enzyme; reaction to make β-Phenylpropanyl CoA; reduced from low mM; cited from earlier work
[2] = system: CC(C)(COP(=O)(O)OP(=O)(O)OC[C@H]1O[C@@H](n2cnc3c(N)ncnc32)[C@H](O)[C@@H]1OP(=O)(O)O)[C@@H](O)C(=O)NCCC(=O)NCCS; assay: purified protein, by the assay type; conditions: other: TycA-S563A, CoA 1 mM, ATP 1 mM, MgCl2 3 mM, 31° C., CoA with (S)-α-Phe as cosubstrate, pH 8.0
Method: At the end of each reaction, and prior to mass spectrometry analysis, acetyl CoA (1 μM) was added as the internal standard to each sample to correct for variations of the analyte. The products of the enzyme-catalyzed reaction were quantified by a liquid chromatography multiple reaction monitoring (LC-ESI-MRM) mass spectrometry technique (Anderson & Hunter, Mol. Cell. Proteomics 5: 573-588 (2006)) on the Quattro-Premier Electro-Spray Mass Spectrometer coupled with Acquity® UPLC system fitted with a C18 Ascentis Express column (2.5×50 mm, 2.7 μm) at 30° C. An aliquot (5 μL) of each sample was loaded onto the column and the analytes were eluted with a solvent gradient of acetonitrile (Solvent A) in 0.05% triethylamine in distilled water (Solvent B). Elution was held at 2.5% Solvent A for 3.17 min, increased to 100% Solvent A over 5 sec with a 2-min hold, and then returned to 2.5% Solvent A over 5 sec with a 50-sec hold. The flow rate employed was 0.4 mL/min. The effluent from the chromatography column was directed to the mass spectrometer where the first quadrupole mass analyzer (in negative ion mode) was set to select for the molecular ion of a biosynthesized acyl CoA product. The selected ion was then directed to a collision gas chamber where the collision energy was optimized to maximize the abundance of a single signature fragment ion (m/z 408, characteristic of acyl CoA thioesters) resolved in the second quadrupole mass analyzer by the MRM method. The peak area under the curve of fragment ion m/z 408 for each biosynthetic phenylpropionyl CoA thioester was converted to concentration by comparing the peak area of the same ion produced by authentic CoA (at 0.05, 0.1, 0.2, 0.4, 0.8, 1.6, 3.2, 6.4, 12.5, 25, 50, 100 μM) using linear regression analysis. The initial velocity (vo) of (S)-α-phenylalanyl-CoA, (R)-β-phenylalanyl-CoA and (2R,3S)-phenylisoserinyl-CoA made in separate assays was plotted against substrate concentration and fit by non-linear regression to the Michaelis-Menten equation (R^2 was typically between 0.90 and 0.99) to calculate the Michaelis parameters (KM and kcat).
The KM values of TycA and TycA-S563A for CoA were assessed by incubating each enzyme separately with (S)-α-phenylalanine (1 mM), MgCl2 (3 mM), ATP (1 mM), and CoA at 0.05, 0.1, 0.2, 0.4, 0.8, 1.6, 3.2, 6.4, 12.8 and 25.6 mM at 31° C. for 20 min. At the end of each reaction and prior to mass spectrometry analysis, acetyl CoA (1 μM) was added as the internal standard to each sample to correct for variations of the analyte. The products of the enzyme-catalyzed reaction were quantified by LC-ESI-MRM, and the monitored fragment ion (m/z 408) derived from the CoA moiety of the thioester analytes in the effluent was quantified identically to the procedure described earlier herein. […]

[3] = system: C[C@@](N)(C(=O)O)c1ccccc1; assay: purified protein, by the assay type
N[C@H](CC(=O)O)c1ccccc1 = assay: purified protein, by the assay type
[4] = substrate: CC(=O)NCCS; assay: N-acetylcysteamine ligase reaction kinetics, TycA; assay type: biochemical, Brevibacillus brevis; conditions: other: TycA with NAC; NAC with (S)-α-Phe as cosubstrate
Method: The reactions were quenched by acidification to a pH of about 2 (10% formic acid in distilled water). […] The samples were analyzed on a Quattro-Premier Electro-Spray Mass Spectrometer coupled with Acquity® UPLC system fitted with a C18 Ascentis Express column (2.5×50 mm, 2.7 μm) at 30° C. An aliquot (5 μL) of each sample was loaded onto the column and the analytes were eluted with a solvent gradient of (Solvent A) in 0.05% triethylamine in distilled water (Solvent B) (held at 2.5% Solvent A for 3.17 mM, increased to 100% A over 5 sec with a 2-min hold, and then returned to 2.5% Solvent A over 5 sec with a 50-sec hold) at a flow rate of 0.4 mL/min. In brief, the effluent from the chromatography column was directed to the Quattro Premier ESI mass spectrometer, in MRM scan mode, to quantify the biosynthetic acyl SNAC products. […] A standard curve was used to convert the peak area under the curve of the monitored fragment ion to concentration for each biosynthetic phenylpropionyl SNAC.
Authentic (5)-α-phenylalanyl, (R/S)-β-phenylalanyl- and (2R,3S)-phenylisoserinyl-SNAC were used to construct the standard curves by correlating the peak area under the curve of the monitored ion to concentration of the standard (at 0.16, 0.32, 0.64, 1.3, 2.5, 5, 10, 20, 40, 80, 160 and 320 μM) using linear regression analysis. […]

[5] = other: TycA-S563A with NAC, NAC with (S)-α-Phe as cosubstrate
[6] = other: TycA-S563A, CoA 1 mM, ATP 1 mM, MgCl2 3 mM, 31° C., CoA with (S)-α-Phe as cosubstrate, pH 8.0

Propionyl-CL, sequence (P55912 whole entry): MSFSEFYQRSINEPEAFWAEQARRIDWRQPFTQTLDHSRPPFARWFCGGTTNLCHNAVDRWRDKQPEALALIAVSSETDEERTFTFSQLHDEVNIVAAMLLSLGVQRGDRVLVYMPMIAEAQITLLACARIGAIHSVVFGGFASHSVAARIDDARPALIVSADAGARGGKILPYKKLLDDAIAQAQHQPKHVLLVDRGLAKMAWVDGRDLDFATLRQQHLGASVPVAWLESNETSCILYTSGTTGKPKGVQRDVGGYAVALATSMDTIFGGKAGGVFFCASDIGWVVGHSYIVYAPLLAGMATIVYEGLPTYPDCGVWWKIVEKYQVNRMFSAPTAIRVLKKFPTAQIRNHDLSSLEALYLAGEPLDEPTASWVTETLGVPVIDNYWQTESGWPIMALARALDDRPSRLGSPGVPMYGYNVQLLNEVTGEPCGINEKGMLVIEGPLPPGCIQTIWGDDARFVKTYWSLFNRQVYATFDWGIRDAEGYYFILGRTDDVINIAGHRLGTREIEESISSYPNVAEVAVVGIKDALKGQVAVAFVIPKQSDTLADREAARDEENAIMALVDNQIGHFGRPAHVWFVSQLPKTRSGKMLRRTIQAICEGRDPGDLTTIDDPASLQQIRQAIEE

Q: Which Km (Cinnamate-CL) does the source give for `O=C(O)/C=C/c1ccccc1` [Cinnamate] here?
A: Its Km is 190 µM.

Q: What about the kcat (Cinnamate-CL) of the same molecule?
A: Its kcat is 0.475 s⁻¹.

Q: For `CC(C)(COP(=O)(O)OP(=O)(O)OC[C@H]1O[C@@H](n2cnc3c(N)ncnc32)[C@H](O)[C@@H]1OP(=O)(O)O)[C@@H](O)C(=O)NCCC(=O)NCCS` [CoA], which Km (TycA; TycA, CoA 1 mM, ATP 1 mM, MgCl2 3 mM, 31° C., CoA with (S)-α-Phe as cosubstrate) is on record?
A: Its Km is 1980 ± 175 µM.

Q: And the “kcat^CoA” value (TycA; TycA, turnover with CoA at apparent saturation, CoA with (S)-α-Phe as cosubstrate)?
A: Its value is 0.0125 ± 0.00083 s⁻¹.

Q: What about the “higher KM of TycA compared to that of TycA-S563A” value (TycA; dilution series of CoA with 1 mM (S)-α-Phe) of the same molecule?
A: The value was roughly 2.5 fold.

Q: What about the Km (Propionyl-CL) of the same molecule?
A: The Km was 215 µM.

Q: What about the kcat (Propionyl-CL) of the same molecule?
A: Its kcat is 42 s⁻¹.

Q: What about the Km (Benzoate-CL) of the same molecule?
A: Its Km is 100 µM.

Q: What about the Km (Phenylacetate-CL) of the same molecule?
A: Its Km is 940 µM.

Q: And the Km (4-Chlorobenzoate-CL)?
A: Its Km is 310 µM.

Q: And the kcat (4-Chlorobenzoate-CL)?
A: Its kcat is 9.3 s⁻¹.

Q: And the Km (bacterial CoA Ligases)?
A: The Km was 100 to 940 µM.

Q: For `O=C(O)c1ccccc1` [benzoate], which Km (Benzoate-CL) is on record?
A: Its Km is 11 µM.

Q: And the kcat (Benzoate-CL)?
A: The kcat was 26,000 min^−1.

Q: What does the source list for `CCC(=O)O` [propionate]?
A: Km (Propionyl-CL): 20 µM; kcat (Propionyl-CL): 33 s⁻¹

Q: For `NC(CC(=O)O)c1ccccc1` (stereo not drawn) [β-Phe], which Km [1] is on record?
A: Its Km is 0.068 mM.

Q: Which Km [2] does the source give for “TycA-S563A (Brevibacillus parabrevis; S563A)” here?
A: The Km was 804 ± 26 µM.

Q: What about the kcat [2] of the same molecule?
A: The kcat was 0.015 ± 0.0013 s⁻¹.

Q: What about the Km [3, 5] of the same molecule?
A: Its Km is 37.8 ± 1.6 µM.

Q: What about the kcat [3, 5] of the same molecule?
A: The kcat was 0.003333 ± 3.33e-05 s⁻¹.

Q: And the Km [3, 6]?
A: The Km was 33.9 ± 4.0 µM.

Q: And the Km (N[C@H](CC(=O)O)c1ccccc1; [5])?
A: The Km was 58.9 ± 6.4 µM.

Q: And the kcat (N[C@H](CC(=O)O)c1ccccc1; [5])?
A: Its kcat is 0.0004 ± 1.67e-05 s⁻¹.

Q: And the Km (N[C@H](CC(=O)O)c1ccccc1; [6])?
A: Its Km is 62.3 ± 1.0 µM.

B1: TycA (Brevibacillus parabrevis) (protein)
chain: T1 sequence (P09095 with tags, fused parts or gaps)
notes: this wild-type tycA cDNA encoding the A-, T-, and E-domains was subcloned into a pSU18 vector; made in house; host or cells: Escherichia coli BL21(DE3)
Q: For B1, which Km [4] is on record?
A: Its Km is 153 ± 22 µM.

Q: And the kcat [4]?
A: Its kcat is 0.0015 ± 0.000167 s⁻¹.
